Results: patent publication US11130780B2, “Inhibitors of growth factor activation enzymes” (Washington University, priority 2015, dated 2021)
Like-named read-outs stand apart in the source and are kept apart here.

How the values were obtained:
HGFA [1] = target: T1, HGFA (Homo sapiens, UniProt Q04756); assay: Biochemical assay for proteolysis of pro-HGF by HGFA; conditions: immunoblot; inhibitors 0-12.5 μM; 1 nM HGFA
T1 construct: His6 tag (N); seven amino acid spacer and seven amino acid TEV cleavage site (N); Honey Bee melittin signal peptide (N); made in house; host or cells: High 5 insect cells (baculovirus; virus raised in Sf9)
T1 sequence (Q04756 373-655): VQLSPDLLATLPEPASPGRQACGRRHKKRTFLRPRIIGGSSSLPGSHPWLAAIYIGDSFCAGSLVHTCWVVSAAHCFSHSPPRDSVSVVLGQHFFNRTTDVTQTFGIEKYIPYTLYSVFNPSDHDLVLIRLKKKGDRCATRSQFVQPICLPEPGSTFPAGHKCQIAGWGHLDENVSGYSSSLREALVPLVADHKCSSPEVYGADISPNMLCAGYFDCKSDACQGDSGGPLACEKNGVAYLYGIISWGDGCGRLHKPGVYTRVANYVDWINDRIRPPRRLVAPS
Procedure: (§1) In order to determine efficiency of our recombinant HGFA we performed a concentration response of HGFA using a fixed concentration of pro-HGF and pro-MSP.
(§2) After 30 minutes incubation at room temperature (25° C.), 25 ng of pro-HGF (R&D Systems, NKG011306A) was added. […] Proteins were transferred to Millipore Immobilon-P membranes (Billerica, Mass.) and then immunoblotted at 4° C. with anti-HGF antibody (R&D Systems, AF-294-NA) and HRP conjugated donkey anti-goat IgG (Santa Cruz, SC-2020) diluted 1:500 and 1:5000 in 5% milk/TBST (5% Carnation nonfat dried milk/10 mM Tris, 150 mM NaCl, 0.05% TWEEN 20, pH 8.0), respectively. Membranes were washed in TBST, immersed in Millipore Luminata Crescendo Westem-HRP Substrate for 5 minutes, and then exposures made on a BioRad ChemiDoc MP Imaging System (Hercules, Calif.). For pro-MSP proteolysis assays, the procedures were similar, except that the HGFA concentration was 75 nM, pro-MSP (R&D Systems ZN081306A) concentration was 50 ng per reaction, and 1:500 dilution of anti-MSP antibody (R&D Systems, AF352) was used for MSP detection during immunoblotting.

HGFA [2] = target: T1, HGFA; assay: Biochemical assay for proteolysis of pro-MSP by HGFA; conditions: immunoblot; inhibitors 0-12.5 μM
Procedure: as §1, §2

HGFA [3] = target: T1, HGFA; assay: HGFA competition assay of inhibitor and substrate; assay type: biochemical; conditions: 0, 0.25, 0.5, 1.0 μM inhibitor; Pefachrome
Procedure: From the plots of the mean reaction velocity versus substrate concentration and the Michaelis-Menten enzyme kinetics equation within GraphPad Prism version 6.04 for Windows, the reaction Vmax and subsequent Km for each concentration of inhibitor was determined as shown in the FIG. 1.

hepsin = target: T2, hepsin (Homo sapiens, UniProt P05981); assay: Fluorescent kinetic enzyme inhibitor assay of hepsin; assay type: biochemical; conditions: for IC50: Table 4.1
T2 construct: purchased R&D Systems 4776-SE-010
T2 sequence (P05981 163-417 limits assumed): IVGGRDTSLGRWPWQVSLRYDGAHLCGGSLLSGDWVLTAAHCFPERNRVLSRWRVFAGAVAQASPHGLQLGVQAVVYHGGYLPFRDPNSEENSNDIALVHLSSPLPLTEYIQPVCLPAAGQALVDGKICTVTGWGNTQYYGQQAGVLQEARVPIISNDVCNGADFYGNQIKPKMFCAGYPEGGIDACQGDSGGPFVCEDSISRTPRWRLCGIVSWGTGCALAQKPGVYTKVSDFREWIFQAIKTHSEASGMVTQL
T2 sequence (P05981 45-162 partner limits assumed): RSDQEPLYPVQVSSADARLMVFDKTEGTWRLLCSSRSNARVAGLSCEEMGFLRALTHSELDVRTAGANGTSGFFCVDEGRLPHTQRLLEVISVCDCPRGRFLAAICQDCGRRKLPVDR
Procedure, shortened: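 Fluorescence (ex 380/em 460 nm) followed kinetically at room temperature; IC50 from four-parameter fit of mean velocity versus concentration, averaged over three experiments.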

HGFA [4] = target: T1, HGFA; assay: Chromogenic kinetic enzyme inhibitor assay of HGFA; assay type: biochemical; conditions: Table 4.1; chromogenic substrate Pefachrome FVIIa
Source text: This PCR product was cloned into the SfoI-HindIII sites of a modified pFastBac HT baculovirus expression vector (Addgene, Cambridge, Mass.). This vector contains a six amino His tag followed by a seven amino spacer and a seven amino acid TEV cleavage site placed immediately downstream of the Honey Bee melittin signal peptide. Using a modified Bac to Bac Expression System (Life Technologies, Carlsbad, Calif.), recombinant HGFA bacmids were obtained by transforming DH10Bac Escherichia coli cells. To obtain HGFA containing baculovirus, purified bacmids were transfected into Sf9 insect cells. After 5 days in culture at 27° C., media was harvested from transfected Sf9 cells. This media was used to prepare baculovirus infected insect cells (BIICs). These BIIICs were used to infect High 5 insect cells. Four days post infection, media was harvested and recombinant protein prepared as follows. Media was chilled to 4° C. and spun at 4000×g for 20 minutes (all subsequent steps were performed at 4° C. unless noted). […] Concentrated media was then buffer exchanged in two steps, five volumes of 50 mM Na-phosphate, 500 mM NaCl, pH 6.2, followed by five volumes of 50 mM Na-phosphate, 500 mM NaCl, pH 7.5. […] After mixing this slurry for 12 hours, nickel agarose beads were allowed to settle by gravity and then loaded into a column. Beads were washed with buffer (25 mM Na-phosphate, 500 mM NaCl, 25 mM imidazole, pH 8) and the bound protein eluted using (25 mM Na-phosphate, 500 mM NaCl, 250 mM imidazole, pH 8). Using a Amicon Ultra-4 Centrifugal filters (#UFC801008, Merck Millipore, Ltd., Tullagreen, Ireland), peak protein fractions were concentrated and run over a Superdex-200 10/300 GL column (GE Healthcare Life Sciences, Piscataway, N.J.) in 10 mM Tris, 200 mM NaCl, 0.2 mM EDTA, pH 8. HGFA containing fractions were pooled, concentrated, made 50% glycerol, and stored at minus 20° C. Protein was quantitated using a modified Lowry protein assay (#500-0006, Bio-Rad Laboratories, Hercules, Calif.).
Using Gen 5 2.00 software program (Biotek, Winnoski, Vt.), a four parameter curve fit was used to determine the inhibitor IC50s from a plot of the mean reaction velocity versus the inhibitor concentration. The IC50 values represent the average of three separate experimental determinations.

[5] = Table 4.2, Boc-QAR-AMC substrate, read-out: Hepsin Ki

inhibition of pro-HGF activation by HGFA (HGFA [1]) | inhibition of pro-MSP proteolysis by HGFA (HGFA [2]) | mode of inhibition versus substrate (HGFA [3]) | fold more potent for hepsin versus HGFA (hepsin) [fold] | IC50 (hepsin) [nM] | Ki (hepsin; [5]) [nM] | IC50 (HGFA [4]) [nM] | Ki (hepsin; read-out: Ki for hepsin) [nM] | SMILES
dose-dependent inhibition | dose-dependent inhibition | competitive | 200 | 2 | 0.19 | 445 |  | CC(=O)N[C@@H](CCCCN)C(=O)N[C@@H](CCC(N)=O)C(=O)N[C@@H](CC(C)C)C(=O)N[C@@H](CCCNC(=N)N)C(=O)c1nccs1 [Compound 5, Ac-KQLR(SEQ ID NO: 1)-kt]
 |  |  |  |  | 0.58 | 470 |  | CC(=O)N[C@@H](CCCCN)C(=O)N[C@@H](CCC(N)=O)C(=O)N[C@@H](Cc1ccccc1)C(=O)N[C@@H](CCCNC(=N)N)C(=O)c1nccs1 [Compound 5c, Ac-KQFR(SEQ ID NO: 4)-kt]
 |  |  |  | 1 |  | 270 |  | CC(=O)N[C@@H](CCCNC(=N)N)C(=O)N[C@@H](CCC(N)=O)C(=O)N[C@@H](CC(C)C)C(=O)N[C@@H](CCCNC(=N)N)C(=O)c1nccs1 [Compound 5e, Ac-RQLR(SEQ ID NO: 6)-kt]
dose-dependent inhibition | dose-dependent inhibition |  |  | 5 |  | 225 |  | CC(=O)N[C@@H](CCCCN)C(=O)N[C@@H](CCCNC(=N)N)C(=O)N[C@@H](CC(C)C)C(=O)N[C@@H](CCCNC(=N)N)C(=O)c1nccs1 [Compound 5g, Ac-KRLR(SEQ ID NO: 8)-kt]
dose-dependent inhibition | dose-dependent inhibition |  |  | 0.3 | 0.21 | 275 |  | CC(=O)N[C@@H](Cc1c[nH]c2ccccc12)C(=O)N[C@@H](CCCNC(=N)N)C(=O)N[C@@H](CC(C)C)C(=O)N[C@@H](CCCNC(=N)N)C(=O)c1nccs1 [Compound 5h, Ac-WRLR(SEQ ID NO: 9)-kt]
 |  |  | 70 |  | 1.2 | 560 |  | CC(=O)N[C@@H](CO)C(=O)N[C@@H](CCCCN)C(=O)N[C@@H](CC(C)C)C(=O)N[C@@H](CCCNC(=N)N)C(=O)c1nccs1 [Compound 6, Ac-SKLR(SEQ ID NO: 10)-kt]
 |  |  |  | 51 |  | 520 |  | CC(=O)N[C@@H](CO)C(=O)N[C@@H](CCCCN)C(=O)N[C@@H](Cc1ccccc1)C(=O)N[C@@H](CCCNC(=N)N)C(=O)c1nccs1 [Compound 6c, Ac-SKFR(SEQ ID NO: 13)-kt]
 | dose-dependent inhibition |  |  | 5 |  | 303 |  | CC(=O)N[C@@H](CO)C(=O)N[C@@H](CCCNC(=N)N)C(=O)N[C@@H](CC(C)C)C(=O)N[C@@H](CCCNC(=N)N)C(=O)c1nccs1 [Compound 6e, Ac-SRLR(SEQ ID NO: 15)-kt]
 |  |  |  | 9 |  | 435 | 1.2 | CC(=O)N[C@@H](CO)C(=O)N[C@@H](Cc1c[nH]c2ccccc12)C(=O)N[C@@H](CC(C)C)C(=O)N[C@@H](CCCNC(=N)N)C(=O)c1nccs1 [Compound 6g, Ac-SWLR(SEQ ID NO: 17)-kt]
dose-dependent inhibition | dose-dependent inhibition |  |  | 2 | 0.53 | 800 |  | N=C(N)c1ccc2cc(OC(=O)c3ccc(N=C(N)N)cc3)ccc2c1 [Nafamostat, reference compound]
